Values joined by “and” are separate entries in the source; they are usually repeats but may differ in a detail not shown here. Identical values can stand only once. “Also recorded” adds a separate entry of the source. Like-named read-outs stand apart in the source and are kept apart here.
Legend:
vaccinia capping enzyme = vaccinia capping enzyme (Vaccinia virus, UniProt P04298); format: biochemical
[1] = target: RNA guanyltransferase activity of the vaccinia capping enzyme system (Vaccinia virus, UniProt P04298); settings: cited from earlier work
BDCM cells = format: cell-based; settings: poly(A)-tailed Renilla luciferase RNA
[2] = tested on: rabbit reticulocyte lysate; format: biochemical
wheat germ lysate = format: biochemical
[3] = tested on: tobacco acid pyrophosphatase (TAP); format: biochemical
[4] = target: vaccinia mRNA (nucleoside-2′-O—) methyltransferase (Vaccinia virus, UniProt P07617); format: biochemical
[5] = target: vaccinia capping enzyme (guanine 7-methyltransferase activity) (Vaccinia virus, UniProt P04298); format: biochemical
[6] = cap 0 structure, GTP-capped cap 0 RNA = 100%
[7] = cap I structure, GTP-capped RNA = 100%
[8] = rabbit reticulocyte lysate, poly(A)-tailed Renilla luciferase RNA, cap 0 structure, GTP-capped cap 0 RNA = 100%
[9] = rabbit reticulocyte lysate, poly(A)-tailed Renilla luciferase RNA, cap I structure
[10] = rabbit reticulocyte lysate, poly(A)-tailed firefly luciferase RNA, cap I structure
[11] = wheat germ lysate, poly(A)-tailed Renilla luciferase RNA, cap 0 structure, GTP-capped cap 0 RNA = 100%
[12] = wheat germ lysate, poly(A)-tailed Renilla luciferase RNA, cap I structure
[13] = capped RNA prepared per Method 6

SMILES	substrate for the capping enzyme system (51-base primary RNA transcript converted into 52-base capped RNA) (vaccinia capping enzyme)	use in place of GTP in an in vitro capping reaction [1]	average relative translation efficiency [2, 8]	average relative translation efficiency [2, 9]	average relative translation efficiency [2, 10]	relative translation efficiency (wheat germ lysate; [12])	other results
Nc1nc2c(ccn2[C@@H]2O[C@H](COP(=O)(O)OP(=O)(O)OP(=O)(O)O)[C@@H](O)[C@H]2O)c(=O)[nH]1 [7-deaza-GTP, reference compound]	not substrates for the capping enzyme system	–	–	–	–	–	–
Nc1nc2c(ncn2[C@@H]2O[C@H](COP(=O)(O)OP(=O)(O)O)[C@@H](O)[C@H]2O)c(=O)[nH]1 [GDP]	–	could not be used in place of GTP	–	–	–	–	–
CO[C@H]1[C@@H](O)[C@H]([n+]2cn(C)c3c(=O)[nH]c(N)nc32)O[C@@H]1COP(=O)([O-])OP(=O)(O)OP(=O)(O)OC[C@H]1O[C@@H](n2cnc3c(=O)[nH]c(N)nc32)[C@H](O)[C@@H]1O [m2^7,3′-OGpppG, reference compound]	–	–	–	–	–	–	relative translation efficiency (BDCM cells; [6]): 130%; relative translation efficiency (BDCM cells; [7]): 102%
Nc1nc2c(ncn2[C@H]2CC[C@@H](COP(=O)(O)OP(=O)(O)OP(=O)(O)O)O2)c(=O)[nH]1 [2′,3′-ddGTP, 2′,3′-dideoxy-GTP, reference compound]	not substrates for the capping enzyme system; also recorded: not a substrate for the capping enzyme system	–	–	–	–	–	–
Nc1nc2c(ncn2[C@@H]2O[C@H](COP(=O)(O)OP(=O)(O)OP(=O)(O)O)[C@@H](O)[C@H]2N)c(=O)[nH]1 [2′-amino-dGTP, 2′-amino-2′-deoxyguanosine-5′-triphosphate]	–	–	148%	144%	100%	110%	relative translation efficiency (wheat germ lysate; [11]): 90%; conversion of 51-base primary RNA transcript to 52-base capped RNA (in words) (vaccinia capping enzyme): quantitatively converted; relative translation efficiency (BDCM cells; [6]): 150%; relative translation efficiency (BDCM cells; [7]): 177%; removal of the cap nucleotide by tobacco acid pyrophosphatase (51-base band on PAGE) [3, 13]: 51-base band was observed; methylation of the 2′-hydroxyl of the 5′-penultimate nucleotide by mRNA (nucleoside-2′-O—) methyltransferase [4]: 52-base radioactive band was observed
O=c1ccn([C@@H]2O[C@H](COP(=O)(O)OP(=O)(O)OP(=O)(O)O)[C@@H](O)[C@H]2O)c(=O)[nH]1 [UTP]	–	could not be used in place of GTP	–	–	–	–	–
Nc1nc2c(ncn2[C@@H]2O[C@H](COP(=O)(O)O)[C@@H](O)[C@H]2O)c(=O)[nH]1 [GMP]	–	could not be used in place of GTP	–	–	–	–	–
CO[C@@H]1[C@H](O)[C@@H](COP(=O)(O)OP(=O)(O)OP(=O)(O)O)O[C@H]1n1cnc2c(=O)[nH]c(N)nc21 [2′-OMe-GTP, 2′-O-methylguanosine-5′-triphosphate]	–	–	–	–	–	–	average relative translation efficiency [2]: 132% and 97% and 170%; relative translation efficiency (wheat germ lysate): 36% and 47%; removal of the cap nucleotide by tobacco acid pyrophosphatase (51-base band on PAGE) [3]: 51-base band was observed; methylation of the 2′-hydroxyl of the 5′-penultimate nucleotide by mRNA (nucleoside-2′-O—) methyltransferase [4]: 52-base radioactive band was observed
Nc1ccn([C@@H]2O[C@H](COP(=O)(O)OP(=O)(O)OP(=O)(O)O)[C@@H](O)[C@H]2O)c(=O)n1 [CTP]	–	could not be used in place of GTP	–	–	–	–	–
[N-]=[N+]=N[C@H]1C[C@H](n2cnc3c(=O)[nH]c(N)nc32)O[C@@H]1COP(=O)(O)OP(=O)(O)OP(=O)(O)O [3′-azido-2′,3′-ddGTP, 3′-azido-2′,3′-dideoxyguanosine-5′-triphosphate]	substrates for the capping enzyme system	–	–	–	–	–	–
Nc1ncnc2c1ncn2[C@@H]1O[C@H](COP(=O)(O)OP(=O)(O)OP(=O)(O)O)[C@@H](O)[C@H]1O [ATP, reference compound]	not substrates for the capping enzyme system	could not be used in place of GTP	–	–	–	–	–
COc1nc(N)nc2c1ncn2[C@@H]1O[C@H](COP(=O)(O)OP(=O)(O)OP(=O)(O)O)[C@@H](O)[C@H]1O [O^6-methyl-GTP, O^6-methylguanosine-5′-triphosphate]	substrates for the capping enzyme system	–	167%	122%	97%	59%	relative translation efficiency (wheat germ lysate; [11]): 80%; 51-base primary RNA transcript converted into 52-base capped RNA (vaccinia capping enzyme): approximately 70%; relative translation efficiency (BDCM cells; [6]): 115%; relative translation efficiency (BDCM cells; [7]): 117%; conversion of 51-base primary RNA transcript into 52-base capped RNA (in words) [5]: quantitatively converted; methylation of the N^7 position of the cap nucleotide (radioactive methyl group in 52-base band) [5]: catalyzed formation of N^7-methylated capped RNA
Cn1c(N)nc2c(ncn2[C@@H]2O[C@H](COP(=O)(O)OP(=O)(O)OP(=O)(O)O)[C@@H](O)[C@H]2O)c1=O [N^1-methyl-GTP, N^1-methylguanosine-5′-triphosphate]	substrates for the capping enzyme system	–	–	–	–	–	relative translation efficiency (wheat germ lysate): 31%; conversion of 51-base primary RNA transcript to 52-base capped RNA (in words) (vaccinia capping enzyme): quantitatively converted; methylation of the N^7 position of the cap nucleotide (radioactive methyl group in 52-base band) [5]: did not contain any radioactivity
Cn1c[n+]([C@@H]2O[C@H](COP(=O)(O)OP(=O)([O-])OP(=O)(O)O)[C@@H](O)[C@H]2O)c2nc(N)[nH]c(=O)c21 [N^7-methyl-GTP, reference compound]	not substrates for the capping enzyme system	could not be used in place of GTP	–	–	–	–	–
O=c1[nH]cnc2c1ncn2[C@@H]1O[C@H](COP(=O)(O)OP(=O)(O)OP(=O)(O)O)[C@@H](O)[C@H]1O [ITP]	–	could not be used in place of GTP	–	–	–	–	–
Nc1nc2c(ncn2[C@@H]2O[C@H](COP(=O)(O)OP(=O)(O)OP(=O)(O)O)[C@@H](O)[C@H]2F)c(=O)[nH]1 [2′-F-dGTP, 2′-fluoro-2′-deoxyguanosine-5′-triphosphate]	–	–	55%	107%	133%	61%	relative translation efficiency (wheat germ lysate; [11]): 53%; removal of the cap nucleotide by tobacco acid pyrophosphatase (51-base band on PAGE) ([3]; capped RNA prepared per Method 6 except in the absence of S-adenosyl-L-methionine): 51-base band was observed; methylation of the 2′-hydroxyl of the 5′-penultimate nucleotide by mRNA (nucleoside-2′-O—) methyltransferase [4]: 52-base radioactive band was observed
[N-]=[N+]=N[C@@H]1[C@H](O)[C@@H](COP(=O)(O)OP(=O)(O)OP(=O)(O)O)O[C@H]1n1cnc2c(=O)[nH]c(N)nc21 [2′-azido-dGTP, 2′-azido-2′-deoxyguanosine-5′-triphosphate]	–	–	99%	79%	107%	42%	relative translation efficiency (wheat germ lysate; [11]): 41%; methylation of the 2′-hydroxyl of the 5′-penultimate nucleotide by mRNA (nucleoside-2′-O—) methyltransferase [4]: 52-base radioactive band was observed
CO[C@H]1[C@@H](O)[C@H](n2cnc3c(=O)[nH]c(N)nc32)O[C@@H]1COP(=O)(O)OP(=O)(O)OP(=O)(O)O [3′-OMe-GTP, 3′-O-methylguanosine-5′-triphosphate]	–	–	82%	84%	137%	43%	relative translation efficiency (wheat germ lysate; [11]): 39%; conversion of 51-base primary RNA transcript to 52-base capped RNA (in words) (vaccinia capping enzyme): quantitatively converted; removal of the cap nucleotide by tobacco acid pyrophosphatase (51-base band on PAGE) [3, 13]: 51-base band was observed; methylation of the 2′-hydroxyl of the 5′-penultimate nucleotide by mRNA (nucleoside-2′-O—) methyltransferase [4]: 52-base radioactive band was observed
Nc1nc2c(ncn2[C@H]2C[C@H](N)[C@@H](COP(=O)(O)OP(=O)(O)OP(=O)(O)O)O2)c(=O)[nH]1 [3′-amino-2′,3′-ddGTP, 3′-amino-2′,3′-dideoxyguanosine-5′-triphosphate]	substrates for the capping enzyme system	–	–	–	–	–	–
Nc1nc2c(ncn2[C@@H]2O[C@H](COP(=O)(O)OP(=O)(O)OP(=O)(O)O)C[C@H]2O)c(=O)[nH]1 [3′-dGTP, 3′-deoxyguanosine-5′-triphosphate]	–	–	80%	64%	98%	31%	–

— patent publication US9115380B2, “Kits and methods for generating 5′ capped RNA” (priority 2006, dated 2015)
